± gives the standard deviation of the averaged measurements.
Columns and labels:
[1] = tested on: Danio rerio embryo
Experimental: (§1)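 Zebrafish embryos (UFZ-OBI strain) were exposed from 2 hpf for 48 h (2 dpf) or 96 h (4 dpf) at 28 °C; spontaneous tail coiling was scored at 25 hpf. Morphological features from automated image analysis (FishInspector), heart rate and locomotor response were fitted with drc models. Quantal endpoints were dichotomised at 2.5 SD from controls and fitted with a log-logistic model; heart rate, pigmentation and STC were normalised to the replicate control mean. Betamethasone was tested as betamethasone dipropionate, diflorasone as diflorasone diacetate.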

[2] = tested on: Danio rerio embryo; settings: exposure time: 4 dpf
Experimental: as §1

[3] = tested on: Danio rerio embryo; experiment: EC50 Curvature_Increase
Experimental: as §1

[4] = tested on: Danio rerio embryo; experiment: EC50 Body length_Decrease
Experimental: as §1

[5] = tested on: Danio rerio embryo; experiment: EC50 Bladder size_Decrease; settings: exposure time: 4 dpf
Experimental: as §1

[6] = tested on: Danio rerio embryo; experiment: EC50 Pericard size_Increase; settings: exposure time: 4 dpf
Experimental: as §1

[7] = tested on: Danio rerio embryo; experiment: EC50 Yolk sac size_Increase; settings: exposure time: 4 dpf
Experimental: as §1

[8] = tested on: Danio rerio embryo; experiment: EC50 Eye-jaw distance_Decrease; settings: exposure time: 4 dpf
Experimental: as §1

[9] = tested on: Danio rerio embryo; experiment: EC50 Otolith-eye distance_Decrease; settings: exposure time: 4 dpf
Experimental: as §1

[10] = tested on: Danio rerio embryo; experiment: EC10 LMR dark; higher = less potent; settings: exposure time: 4 dpf
Experimental: as §1

[11] = tested on: Danio rerio embryo; experiment: EC20 LMR dark; higher = less potent; settings: exposure time: 4 dpf
Experimental: as §1

[12] = tested on: Danio rerio embryo; experiment: EC20 Any effect; higher = less potent
Experimental: as §1

[13] = tested on: Danio rerio embryo; experiment: EC10 Any effect; higher = less potent
Experimental: as §1

[14] = tested on: Danio rerio embryo; experiment: EC10 Curvature_Increase; higher = less potent
Experimental: as §1

[15] = tested on: Danio rerio embryo; experiment: EC20 Curvature_Increase; higher = less potent
Experimental: as §1

[16] = tested on: Danio rerio embryo; experiment: EC20 Body length_Decrease; higher = less potent
Experimental: as §1

[17] = tested on: Danio rerio embryo; experiment: EC10 Body length_Decrease; higher = less potent
Experimental: as §1

[18] = tested on: Danio rerio embryo; experiment: EC10 Bladder size_Decrease; higher = less potent; settings: exposure time: 4 dpf
Experimental: as §1

[19] = tested on: Danio rerio embryo; experiment: EC20 Bladder size_Decrease; higher = less potent; settings: exposure time: 4 dpf
Experimental: as §1

[20] = tested on: Danio rerio embryo; experiment: EC20 Yolk sac size_Increase; higher = less potent; settings: exposure time: 4 dpf
Experimental: as §1

[21] = tested on: Danio rerio embryo; experiment: EC20 Pericard size_Increase; higher = less potent; settings: exposure time: 4 dpf
Experimental: as §1

[22] = tested on: Danio rerio embryo; experiment: EC10 Yolk sac size_Increase; higher = less potent; settings: exposure time: 4 dpf
Experimental: as §1

[23] = tested on: Danio rerio embryo; experiment: EC10 Pericard size_Increase; higher = less potent; settings: exposure time: 4 dpf
Experimental: as §1

[24] = tested on: Danio rerio embryo; experiment: EC20 Eye-jaw distance_Decrease; higher = less potent; settings: exposure time: 4 dpf
Experimental: as §1

[25] = tested on: Danio rerio embryo; experiment: EC10 Eye-jaw distance_Decrease; higher = less potent; settings: exposure time: 4 dpf
Experimental: as §1

[26] = tested on: Danio rerio embryo; experiment: EC20 Head trunk angle_Decrease; higher = less potent; settings: exposure time: 2 dpf
Experimental: as §1

[27] = tested on: Danio rerio embryo; experiment: EC20 Otolith-eye distance_Decrease; higher = less potent; settings: exposure time: 4 dpf
Experimental: as §1

[28] = tested on: Danio rerio embryo; experiment: EC10 Otolith-eye distance_Decrease; higher = less potent; settings: exposure time: 4 dpf
Experimental: as §1

[29] = tested on: Danio rerio embryo; experiment: spontaneous tail coiling frequency (coils/min/embryo); higher = more spontaneous movement; settings: 25 hpf
Experimental: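 Spontaneous tail coilings of zebrafish embryos exposed from 2 hpf were recorded at 24-25 hpf in 1-min videos and detected by a KNIME workflow from grey-value variance. Betamethasone was tested as the dipropionate, diflorasone as the diacetate.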

CCO/N=C(\CC)C1=C(O)CC(c2c(C)cc(C)cc2C)CC1=O (stereo unspecified) [Tralkoxydim]
Settings | EC10 Any effect [µM] | EC10 Body length Decrease [µM] | EC10 Curvature Increase [µM] | EC20 Any effect [µM] | EC20 Body length Decrease [µM] | EC20 Curvature Increase [µM] | EC50 Any effect [µM] | EC50 Body length Decrease [µM] | EC50 Curvature Increase [µM] | EC50 Otolith [µM] | EC50 STC decrease [µM] | spontaneous tail coiling frequency
[1], exposure time: 2 dpf | – | – | – | – | – | – | 66 | – | – | 241 | – | –
[1], exposure time: 4 dpf | – | – | – | – | – | – | 68.9 | – | – | – | – | –
[1], exposure time: 25 h | – | – | – | – | – | – | – | – | – | – | 171 | –
[3], exposure time: 2 dpf | – | – | – | – | – | – | – | – | 98.7 | – | – | –
[3], exposure time: 4 dpf | – | – | – | – | – | – | – | – | 101 | – | – | –
[4], exposure time: 2 dpf | – | – | – | – | – | – | – | 66.2 | – | – | – | –
[4], exposure time: 4 dpf | – | – | – | – | – | – | – | 103 | – | – | – | –
[12], exposure time: 2 dpf | – | – | – | 47.2 | – | – | – | – | – | – | – | –
[12], exposure time: 4 dpf | – | – | – | 52.7 | – | – | – | – | – | – | – | –
[13], exposure time: 2 dpf | 38.8 | – | – | – | – | – | – | – | – | – | – | –
[13], exposure time: 4 dpf | 45.1 | – | – | – | – | – | – | – | – | – | – | –
[14], exposure time: 2 dpf | – | – | 77.4 | – | – | – | – | – | – | – | – | –
[14], exposure time: 4 dpf | – | – | 85.2 | – | – | – | – | – | – | – | – | –
[15], exposure time: 2 dpf | – | – | – | – | – | 84.7 | – | – | – | – | – | –
[15], exposure time: 4 dpf | – | – | – | – | – | 90.7 | – | – | – | – | – | –
[16], exposure time: 2 dpf | – | – | – | – | 45.5 | – | – | – | – | – | – | –
[16], exposure time: 4 dpf | – | – | – | – | 91.9 | – | – | – | – | – | – | –
[17], exposure time: 2 dpf | – | 36.6 | – | – | – | – | – | – | – | – | – | –
[17], exposure time: 4 dpf | – | 85.8 | – | – | – | – | – | – | – | – | – | –
[29], 30.4 µM | – | – | – | – | – | – | – | – | – | – | – | 2.43 ± 0.84
[29], 60.7 µM | – | – | – | – | – | – | – | – | – | – | – | 2.33
[29], 91.1 µM | – | – | – | – | – | – | – | – | – | – | – | 4.43 ± 1.7
[29], 121.4 µM | – | – | – | – | – | – | – | – | – | – | – | 3.17 ± 1.6
[29], 151.8 µM | – | – | – | – | – | – | – | – | – | – | – | 1.92 ± 2.8
[29], 197.3 µM | – | – | – | – | – | – | – | – | – | – | – | 0.957 ± 1.6
[29], 258 µM | – | – | – | – | – | – | – | – | – | – | – | 0

Settings | EC10 Bladder size Decrease [µM] | EC10 Eye-jaw distance Decrease [µM] | EC10 LMR dark [µM] | EC10 Otolith-eye distance Decrease [µM] | EC10 Pericard size Increase [µM] | EC10 Yolk sac size Increase [µM] | EC20 Bladder size Decrease [µM] | EC20 Eye-jaw distance Decrease [µM] | EC20 Head trunk angle Decrease [µM] | EC20 LMR dark [µM] | EC20 Otolith-eye distance Decrease [µM] | EC20 Pericard size Increase [µM] | EC20 Yolk sac size Increase [µM] | EC50 Bladder size Decrease [µM] | EC50 Eye-jaw distance Decrease [µM] | EC50 LMR dark [µM] | EC50 Otolith-eye distance Decrease [µM] | EC50 Pericard size Increase [µM] | EC50 Yolk sac size Increase [µM]
[2] | – | – | – | – | – | – | – | – | – | – | – | – | – | – | – | 85.8 | – | – | –
[5] | – | – | – | – | – | – | – | – | – | – | – | – | – | 61.3 | – | – | – | – | –
[6] | – | – | – | – | – | – | – | – | – | – | – | – | – | – | – | – | – | 106 | –
[7] | – | – | – | – | – | – | – | – | – | – | – | – | – | – | – | – | – | – | 65.3
[8] | – | – | – | – | – | – | – | – | – | – | – | – | – | – | 97.9 | – | – | – | –
[9] | – | – | – | – | – | – | – | – | – | – | – | – | – | – | – | – | 116 | – | –
[10] | – | – | 0.149 | – | – | – | – | – | – | – | – | – | – | – | – | – | – | – | –
[11] | – | – | – | – | – | – | – | – | – | 1.56 | – | – | – | – | – | – | – | – | –
[18] | 47.1 | – | – | – | – | – | – | – | – | – | – | – | – | – | – | – | – | – | –
[19] | – | – | – | – | – | – | 51.9 | – | – | – | – | – | – | – | – | – | – | – | –
[20] | – | – | – | – | – | – | – | – | – | – | – | – | 45.9 | – | – | – | – | – | –
[21] | – | – | – | – | – | – | – | – | – | – | – | 104 | – | – | – | – | – | – | –
[22] | – | – | – | – | – | 37.4 | – | – | – | – | – | – | – | – | – | – | – | – | –
[23] | – | – | – | – | 103 | – | – | – | – | – | – | – | – | – | – | – | – | – | –
[24] | – | – | – | – | – | – | – | 89 | – | – | – | – | – | – | – | – | – | – | –
[25] | – | 84.3 | – | – | – | – | – | – | – | – | – | – | – | – | – | – | – | – | –
[26] | – | – | – | – | – | – | – | – | 88 | – | – | – | – | – | – | – | – | – | –
[27] | – | – | – | – | – | – | – | – | – | – | 89.6 | – | – | – | – | – | – | – | –
[28] | – | – | – | 77.1 | – | – | – | – | – | – | – | – | – | – | – | – | – | – | –
